The values that follow come from PubChem BioAssay (NCI).

Some test systems named below: A498 renal; CAKI-1 renal; HOP-92 NSCLC; IGROV1 ovarian; K-562 leukemia; OVCAR-5 ovarian; RPMI-8226 leukemia; SF-295 CNS; SF-539 CNS; SR leukemia.
Common to all, as to experiment: DTP human tumour cell line panel, 48 h

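Grown in 96-well plates, cells were treated for 48 hours with each compound at five concentrations. Insufficient inhibition: endpoint recorded as highest concentration tested. GI50 = concentration required for 50% inhibition of growth. TGI is the concentration that stops growth completely.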

Consider `COS(=O)c1cc(Cl)cc(Cl)c1OC(=O)CSSCC(=O)Oc1c(Cl)cc(Cl)cc1S(=O)OC` (stereo not drawn), for which the TGI is 54.1 µM in the assay with A498 renal; 63.1 µM with CAKI-1 renal; 53.2 µM with HOP-92 NSCLC; 46.5 µM in the assay on IGROV1 ovarian; 51.1 µM in the assay on K-562 leukemia; 41.2 µM with OVCAR-5 ovarian. In addition, the TGI with RPMI-8226 leukemia worked out at 38.3 µM; with SF-295 CNS it was 67.5 µM; in the assay on SF-539 CNS, 47.6 µM.
As to `Cc1ccccc1Nc1cc(O)c2c(=O)cc(-c3ccccc3)oc2c1`, the GI50 in the assay on CAKI-1 renal was 2.77 µM; in the assay on HOP-92 NSCLC, 3.51 µM; in the assay on IGROV1 ovarian, 3.2 µM; with K-562 leukemia, 0.469 µM; in the assay on OVCAR-5 ovarian it was > 100 µM; with RPMI-8226 leukemia it was 2.87 µM. Besides, the figures for the GI50 in the assay with SF-295 CNS, in the assay on SF-539 CNS and in the assay on SR leukemia were 2.36 µM, 3.1 µM and 0.395 µM, respectively. Further, the TGI in the assay on CAKI-1 renal, in the assay with HOP-92 NSCLC, with IGROV1 ovarian, in the assay on K-562 leukemia, in the assay on OVCAR-5 ovarian and with RPMI-8226 leukemia was > 100 µM in each case. The TGI in the assay on SF-295 CNS, in the assay on SF-539 CNS and in the assay with SR leukemia was > 100 µM each time.
In the case of `COC(=O)C1CCC(C)CC1=O` (stereo not drawn), the TGI in the assay on A498 renal, with CAKI-1 renal, in the assay on HOP-92 NSCLC, in the assay with IGROV1 ovarian, in the assay with K-562 leukemia and in the assay with OVCAR-5 ovarian was > 100 µM each time. Also, the TGI with RPMI-8226 leukemia, in the assay with SF-295 CNS and with SF-539 CNS was > 100 µM throughout.
Consider `O=C1c2cccc3c(N4CCOCC4)ccc(c23)C(=O)N1CCN1CCN(CCCCCN2CCN(CCN3C(=O)c4cccc5c(N6CCOCC6)ccc(c45)C3=O)CC2)CC1`, for which the GI50 in the assay with A498 renal is > 100 µM; in the assay on CAKI-1 renal it was > 100 µM; with HOP-92 NSCLC, 76.6 µM; in the assay with K-562 leukemia, 36 µM; in the assay on OVCAR-5 ovarian, > 100 µM; with RPMI-8226 leukemia it was 23.2 µM. Besides, the GI50 in the assay with SF-295 CNS was 72 µM; in the assay on SF-539 CNS it was > 100 µM. Moreover, the TGI in the assay on A498 renal, in the assay on CAKI-1 renal, in the assay with HOP-92 NSCLC, in the assay with K-562 leukemia, in the assay with OVCAR-5 ovarian and in the assay on RPMI-8226 leukemia was > 100 µM each time. The TGI in the assay with SF-295 CNS and with SF-539 CNS was > 100 µM throughout.
With `Cc1ccc(-n2nc(C(OC3OC(CO)C(O)C(O)C3O)C(O)CO)c3nc4cc(C)c(C)cc4nc32)cc1` (stereo not drawn), the TGI in the assay on A498 renal, in the assay with K-562 leukemia, in the assay on OVCAR-5 ovarian, in the assay with RPMI-8226 leukemia, in the assay on SF-295 CNS and with SF-539 CNS was > 100 µM throughout.
For the molecule `COc1cc([C@@H]2c3cc4c(cc3[C@H](SC(=N)N)[C@H]3COC(=O)[C@H]23)OCO4)cc(OC)c1OC`, the GI50 with CAKI-1 renal is 0.249 µM; in the assay on HOP-92 NSCLC, 37.1 µM; in the assay with IGROV1 ovarian, 0.227 µM; in the assay on K-562 leukemia, 0.14 µM; in the assay with OVCAR-5 ovarian it was 0.638 µM; in the assay with RPMI-8226 leukemia, 0.409 µM. Moreover, the values for the GI50 in the assay with SF-295 CNS, with SF-539 CNS and in the assay with SR leukemia were 0.0369 µM, 0.144 µM and 0.0897 µM, respectively. In addition, the TGI in the assay on CAKI-1 renal is 17.3 µM; in the assay on HOP-92 NSCLC it was > 100 µM; in the assay with IGROV1 ovarian it was 4.66 µM; in the assay with K-562 leukemia, > 100 µM; in the assay with OVCAR-5 ovarian it was > 100 µM; in the assay on RPMI-8226 leukemia, 32 µM. Besides, the TGI with SF-295 CNS is 0.19 µM; in the assay with SF-539 CNS, > 100 µM; in the assay on SR leukemia, > 100 µM.
`NC1=NC(c2ccccc2Cl)c2c(n[nH]c2N)N1` (stereo not drawn): the GI50 in the assay with A498 renal is 17.5 µM; in the assay on CAKI-1 renal, 10.9 µM; with HOP-92 NSCLC, 18.2 µM; in the assay on IGROV1 ovarian, 9.48 µM; in the assay on K-562 leukemia it was 4.52 µM; in the assay with OVCAR-5 ovarian, 50.2 µM. For the same molecule, the GI50 in the assay on RPMI-8226 leukemia is 42.9 µM; in the assay on SF-295 CNS, 16.7 µM; with SF-539 CNS it was 57 µM. The TGI with A498 renal, with CAKI-1 renal, with HOP-92 NSCLC, in the assay with IGROV1 ovarian, in the assay with K-562 leukemia and in the assay on OVCAR-5 ovarian was > 100 µM each time. Moreover, the total growth inhibition concentration (TGI) in the assay on RPMI-8226 leukemia, in the assay with SF-295 CNS and in the assay with SF-539 CNS was > 100 µM each time.
On to `Cc1ccc2ccc3c4ccccc4ccc3c2c1`, for which the GI50 in the assay with A498 renal is 23.1 µM; in the assay with CAKI-1 renal, 20.9 µM; with HOP-92 NSCLC it was 12.7 µM; in the assay on IGROV1 ovarian it was 20 µM; in the assay on K-562 leukemia, 34.7 µM; with OVCAR-5 ovarian, 28.8 µM. The values for the GI50 in the assay with RPMI-8226 leukemia and with SF-539 CNS were 21 µM and 47.7 µM, respectively. Also, the total growth inhibition concentration (TGI) in the assay with A498 renal was 63.6 µM; with CAKI-1 renal, 63.7 µM; in the assay with HOP-92 NSCLC it was 43.9 µM; with IGROV1 ovarian, 94.8 µM; with K-562 leukemia it was > 100 µM; in the assay on OVCAR-5 ovarian, 95.6 µM. The concentration for total growth inhibition (TGI) in the assay on RPMI-8226 leukemia was 59.2 µM; in the assay on SF-539 CNS, > 100 µM.
Turning to `COc1ccc(/C=C/C(=O)c2c(-c3ccccc3)nn(C)c(=O)c2N2CCCCC2)cc1`, the TGI worked out at 92.4 µM with CAKI-1 renal; 16.8 µM in the assay on HOP-92 NSCLC; 77.9 µM in the assay on IGROV1 ovarian; 63 µM with K-562 leukemia; 31.8 µM in the assay on RPMI-8226 leukemia; 44.4 µM with SF-295 CNS. In the assay with SF-539 CNS, this molecule had a TGI of 37.8 µM.
`OC1=CN=C(c2ccccc2)Oc2ccccc21`: the TGI in the assay on A498 renal, with HOP-92 NSCLC, with IGROV1 ovarian, in the assay with K-562 leukemia, in the assay on RPMI-8226 leukemia and in the assay on SF-295 CNS was > 100 µM in each case. This molecule had a TGI with SF-539 CNS of 38.7 µM.
As for `CN1CCCc2nc3ccccc3n2C1`, the TGI in the assay on A498 renal, in the assay on CAKI-1 renal, in the assay with HOP-92 NSCLC, in the assay with IGROV1 ovarian, with K-562 leukemia and in the assay on OVCAR-5 ovarian was > 100 µM each time. Moreover, the TGI with RPMI-8226 leukemia is 68.8 µM; with SF-295 CNS, > 100 µM; in the assay with SF-539 CNS it was > 100 µM.

One may read the TGI as the concentration at which net growth stops. A lower TGI goes with greater sensitivity of the cells. Broadly, the GI50 is the concentration at which growth is held to half of that of the control.
